Data set [1] has as its target T1, IRAK4 protein (Homo sapiens, UniProt Q9NWZ3).
T1 construct: Effects of Compounds on IRAK4 Protein Degradation in THP1 Cells; endogenous in cells; host or cells: THP-1 cells
T1 sequence (Q9NWZ3 1-460): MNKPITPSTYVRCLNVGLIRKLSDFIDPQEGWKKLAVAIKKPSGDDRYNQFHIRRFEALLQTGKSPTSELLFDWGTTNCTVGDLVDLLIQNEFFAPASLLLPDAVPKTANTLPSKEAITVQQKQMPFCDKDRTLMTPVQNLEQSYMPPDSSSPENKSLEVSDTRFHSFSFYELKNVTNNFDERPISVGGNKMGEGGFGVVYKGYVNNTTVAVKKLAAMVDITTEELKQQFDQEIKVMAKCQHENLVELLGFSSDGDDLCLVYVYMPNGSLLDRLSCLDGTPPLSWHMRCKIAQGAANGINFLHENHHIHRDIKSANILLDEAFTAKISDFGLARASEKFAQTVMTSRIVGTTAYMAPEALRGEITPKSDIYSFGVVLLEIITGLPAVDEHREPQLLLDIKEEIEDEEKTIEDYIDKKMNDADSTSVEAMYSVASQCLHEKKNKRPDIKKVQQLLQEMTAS
Put plainly: IRAK4 protein degradation in THP1 cells (Western blot). The following applies: 24 h. The class given is cell-based. The method, then: THP-1 cells were inoculated into a 96-well cell culture plate, with 5×10^4 cells and 100 μL of a culture medium per well. The cell culture plate was cultured in an incubator with 5% CO2 at 37° C. overnight. 100 nl of a well-prepared compound stock solution and a compound-free DMSO stock solution were respectively added to cells per well. The cell culture plate was incubated in an incubator with 5% CO2 at 37° C. for 24 h. One protease inhibitor tablet and one phosphatase inhibitor tablet were added to 20 mL of a cell lysis buffer, and they were gently mixed until complete dissolution. DTT at a final concentration of 200 mM was added to a 4× sample preparation buffer to prepare a 4× sample preparation working solution. 20× electrophoretic buffer was diluted to 1× with ultrapure water. 20× transfer buffer was diluted to 1× with ultrapure water, and 20% methanol was added. […] IRAK4 protein primary antibody working solution: 20 μl of IRAK4 antibody added to 20 mL of a blocking solution; β-Actin primary antibody working solution: 2 μl of beta-actin (13E5) Rabbit mAb antibody added to 20 mL of a blocking solution. IRAK4 protein secondary antibody working solution: Donkey Anti-Goat IgG H&L (HRP) diluted 1/5,000 in a blocking solution; 3-Actin secondary antibody working solution: Anti-rabbit IgG, RP-linked antibody diluted 1/10,000 in a blocking solution. The cell culture plate was centrifuged at 3,000 rpm for 3 min, and most of the culture medium was carefully pipetted. The cell plate was inverted, and centrifuged at 300 rpm for 30 s. 45 μL of a lysis buffer was added to each well. The mixture was shaken at 300 rpm for 30 s, allowed to stand on ice for 30 min, and pipetted 30 times at 20 min. 6 μL of 4× sample preparation working solution was added to 18 μL of protein supernatant for sample preparation, and the mixture was heated at 70° C. for 10 min. Remaining protein samples were stored at −80° C. In the precast gel, 8 μl of sample was loaded into each well for electrophoresis at a constant voltage of 120 V for about 60 min, transferred using a PVDF membrane at a constant current of 300 mA for 1 h, then blocked with a blocking solution at room temperature for 1 h, and incubated in a primary antibody working solution at 4° C. overnight. The membrane was washed with 1×TBST buffer for 3×10 min. The secondary antibody working solution was incubated at room temperature for 1 h. The membrane was washed with 1×TBST buffer for 3×10 min, and a chromogenic solution was used for exposure and color development.

Data set [2] is described as follows: Pharmacokinetic experiment on SD rats (iv and ig). It is filed as in vivo. The conditions noted are these: Sprague-Dawley, rat, plasma; for Cmax: read-out: Peak plasma concentration Cmax; for bioavailability: ig 5.00 mg/kg vs iv 1.00 mg/kg, read-out: Oral bioavailability Fobs (%). On the procedure:
Pharmacokinetic experiment on SD rats: in this experiment, two administration modes: oral intragastric administration and tail vein injection were selected. Each of the compounds of the present patented invention was administered at an oral dose of 5 mg/kg at an administration volume of 10 mL/kg. […] Appropriate amounts of Solutol and H2O were proportionally added sequentially, and fully mixed ultrasonically by vortexing, to prepare a clear drug solution at 0.5 mg/mL. ICL004-protodrug was administered by intravenous injection at a dose of 1 mg/kg at an administration volume of 10 mL/kg. Right before use, an appropriate amount of the drug was accurately weighed, to prepare a final volume of 20% PEG 400 and 80% Saline. Appropriate amounts of PEG 400 and Saline were proportionally added sequentially, and fully mixed ultrasonically by vortexing, to prepare a clear drug solution at 0.1 mg/mL.
6 SD rats, each with body weight of 180-220 g, were randomly grouped into 2 groups. After fasting but with free access to water overnight, each […] in the first group was administered by gavage. 200 μL of blood was sampled from its eye socket into an anticoagulant tube respectively at each time point of 15 min, 30 min, 1 h, 2 h, 4 h, 6 h, 8 h, and 24 h after administration. Within one h, each of the blood samples was centrifuged at 10,000 rpm at 4° C. for 20 min (the sample was stored on an ice box prior to the centrifugation), and the supernatant (i.e., the plasma) was stored in a refrigerator at −20° C. for LC-MS/MS analysis. 200 μL of blood was sampled from the eye socket of each […] in the second group into an anticoagulant tube respectively at each time point of 5 min, 15 min, 30 min, 1 h, 2 h, 4 h, 8 h, and 24 h after administration by intravenous injection. Within one h, each of the blood samples was centrifuged at 10,000 rpm at 4° C. for 20 min (the blood sample was stored on an ice box prior to the centrifugation), and the supernatant, i.e., the plasma, was stored in a refrigerator at −20° C. for LC-MS/MS analysis.

Data set [3] in a line: Pharmacokinetic experiment on mice (iv and ig). It is filed as in vivo. The conditions noted are these: mouse, plasma, BALB/c Mice; for bioavailability: ig 5.00 mg/kg vs iv 1.00 mg/kg, read-out: Oral bioavailability Fobs (%); for Cmax: read-out: Peak plasma concentration Cmax.

A word on the DC50: it is the midpoint of the concentration-degradation curve. Read a low DC50 as degradation at low concentration. Broadly, the AUC is the area under the concentration-time curve, a measure of exposure. Higher therefore signals more exposure. The term AUC(0-inf) denotes total exposure, with the tail of the curve extrapolated. Read a low AUC(0-inf) as low exposure. What is called bioavailability is the share of a dose that reaches the circulation, judged against a reference dose that is usually intravenous.

As for `Cc1nn(C2CCC(=O)NC2=O)c2cccc(N3CC4CN(C[C@H]5CC[C@H](n6cc7cc(NC(=O)c8cnn9cccnc89)c(N8CCOCC8)cc7n6)CC5)CC4C3)c12` (stereo partly drawn) [TM-57], half-maximal degradation in data set [1] (DC50) was put at 3.12 nM. The AUC in data set [2] (iv, 1.00 mg/kg) worked out at 499 ng·h/mL; in data set [2] (po, ig, 5.00 mg/kg), 580 ng·h/mL; in data set [3] (po, ig, 5.00 mg/kg), 1770 ng·h/mL; in data set [3] (iv, 1.00 mg/kg), 790 ng·h/mL. Also, the total exposure AUC(0-inf) was found to be 526 ng·h/mL in data set [2] (iv, 1.00 mg/kg); 1230 ng·h/mL in data set [2] (po, ig, 5.00 mg/kg); 1920 ng·h/mL in data set [3] (po, ig, 5.00 mg/kg); 795 ng·h/mL in data set [3] (iv, 1.00 mg/kg). In addition, the Cmax in data set [2] (iv, 1.00 mg/kg) came out at 225 ng/mL; in data set [2] (po, ig, 5.00 mg/kg), 79.7 ng/mL; in data set [3] (po, ig, 5.00 mg/kg) it was 342 ng/mL; in data set [3] (iv, 1.00 mg/kg), 276 ng/mL. The bioavailability in data set [2] (po) is 46.6%; in data set [3] (po) it was 48.4%.

Compound `Cc1nn(C2CCC(=O)NC2=O)c2cncc(N3CCN(C[C@H]4CC[C@H](n5cc6cc(NC(=O)c7cnn8cccnc78)c(N7CCO[C@H](C)C7)cc6n5)CC4)CC3)c12` (stereo partly drawn) [TM-109] yielded a DC50 in data set [1] of 4.67 nM. The AUC amounted to 537 ng·h/mL in data set [2] (iv, 1.00 mg/kg); 268 ng·h/mL in data set [2] (po, ig, 5.00 mg/kg); 10100 ng·h/mL in data set [3] (po, ig, 5.00 mg/kg); 3220 ng·h/mL in data set [3] (iv, 1.00 mg/kg). Moreover, the AUC(0-inf) in data set [2] (iv, 1.00 mg/kg) turned out to be 776 ng·h/mL; in data set [2] (po, ig, 5.00 mg/kg), 306 ng·h/mL; in data set [3] (po, ig, 5.00 mg/kg) it was 10100 ng·h/mL; in data set [3] (iv, 1.00 mg/kg), 3220 ng·h/mL. In addition, the Cmax in data set [2] (iv, 1.00 mg/kg) stood at 101 ng/mL; in data set [2] (po, ig, 5.00 mg/kg), 23 ng/mL; in data set [3] (po, ig, 5.00 mg/kg), 1300 ng/mL; in data set [3] (iv, 1.00 mg/kg) it was 605 ng/mL. The bioavailability is 7.87% in data set [2] (po) and 63% in data set [3] (po).

For the origin of these results see patent US20260146044A1, “AROMATIC COMPOUND, PHARMACEUTICAL COMPOSITION CONTAINING SAME, AND USE THEREOF” (Increland, priority 2023, published 2026).
